The text below walks through data of patent US10077261B2, “Imidazolin-5-one derivative useful as FASN inhibitors for the treatment of cancer” (Janssen Pharmaceutica NV, priority 2012, dated 2018).

For experiment [1], the system named is A2780 ovarian cells. Briefly: A2780 ovarian cell proliferation assay in lipid reduced medium, with palmitate (MTT). The class given is cell-based. The conditions noted are these: Homo sapiens, A2780, 96 h; read-out: pIC50 A2780 Ovarian Cell, With Palmitate (converted). A digest of the protocol: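 Seeded cells were switched next day to lipid-reduced serum, exposed to compound and 25 μM palmitate complexed with fatty-acid-free BSA, and incubated 96 h. Proliferation was then determined by MTT absorbance at 544 nm, with a best-fit curve of signal against concentration.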

The target in experiment [2] is Fatty Acid Synthase Keto-reductase Domain (FASN KR) (Homo sapiens, UniProt P49327). Briefly: Fatty Acid Synthase keto-reductase domain (FASN KR) inhibition, NADPH oxidation at 340 nm.
Sequence of Fatty Acid Synthase Keto-reductase Domain (FASN KR) (P49327 whole entry, the tested form may be a part): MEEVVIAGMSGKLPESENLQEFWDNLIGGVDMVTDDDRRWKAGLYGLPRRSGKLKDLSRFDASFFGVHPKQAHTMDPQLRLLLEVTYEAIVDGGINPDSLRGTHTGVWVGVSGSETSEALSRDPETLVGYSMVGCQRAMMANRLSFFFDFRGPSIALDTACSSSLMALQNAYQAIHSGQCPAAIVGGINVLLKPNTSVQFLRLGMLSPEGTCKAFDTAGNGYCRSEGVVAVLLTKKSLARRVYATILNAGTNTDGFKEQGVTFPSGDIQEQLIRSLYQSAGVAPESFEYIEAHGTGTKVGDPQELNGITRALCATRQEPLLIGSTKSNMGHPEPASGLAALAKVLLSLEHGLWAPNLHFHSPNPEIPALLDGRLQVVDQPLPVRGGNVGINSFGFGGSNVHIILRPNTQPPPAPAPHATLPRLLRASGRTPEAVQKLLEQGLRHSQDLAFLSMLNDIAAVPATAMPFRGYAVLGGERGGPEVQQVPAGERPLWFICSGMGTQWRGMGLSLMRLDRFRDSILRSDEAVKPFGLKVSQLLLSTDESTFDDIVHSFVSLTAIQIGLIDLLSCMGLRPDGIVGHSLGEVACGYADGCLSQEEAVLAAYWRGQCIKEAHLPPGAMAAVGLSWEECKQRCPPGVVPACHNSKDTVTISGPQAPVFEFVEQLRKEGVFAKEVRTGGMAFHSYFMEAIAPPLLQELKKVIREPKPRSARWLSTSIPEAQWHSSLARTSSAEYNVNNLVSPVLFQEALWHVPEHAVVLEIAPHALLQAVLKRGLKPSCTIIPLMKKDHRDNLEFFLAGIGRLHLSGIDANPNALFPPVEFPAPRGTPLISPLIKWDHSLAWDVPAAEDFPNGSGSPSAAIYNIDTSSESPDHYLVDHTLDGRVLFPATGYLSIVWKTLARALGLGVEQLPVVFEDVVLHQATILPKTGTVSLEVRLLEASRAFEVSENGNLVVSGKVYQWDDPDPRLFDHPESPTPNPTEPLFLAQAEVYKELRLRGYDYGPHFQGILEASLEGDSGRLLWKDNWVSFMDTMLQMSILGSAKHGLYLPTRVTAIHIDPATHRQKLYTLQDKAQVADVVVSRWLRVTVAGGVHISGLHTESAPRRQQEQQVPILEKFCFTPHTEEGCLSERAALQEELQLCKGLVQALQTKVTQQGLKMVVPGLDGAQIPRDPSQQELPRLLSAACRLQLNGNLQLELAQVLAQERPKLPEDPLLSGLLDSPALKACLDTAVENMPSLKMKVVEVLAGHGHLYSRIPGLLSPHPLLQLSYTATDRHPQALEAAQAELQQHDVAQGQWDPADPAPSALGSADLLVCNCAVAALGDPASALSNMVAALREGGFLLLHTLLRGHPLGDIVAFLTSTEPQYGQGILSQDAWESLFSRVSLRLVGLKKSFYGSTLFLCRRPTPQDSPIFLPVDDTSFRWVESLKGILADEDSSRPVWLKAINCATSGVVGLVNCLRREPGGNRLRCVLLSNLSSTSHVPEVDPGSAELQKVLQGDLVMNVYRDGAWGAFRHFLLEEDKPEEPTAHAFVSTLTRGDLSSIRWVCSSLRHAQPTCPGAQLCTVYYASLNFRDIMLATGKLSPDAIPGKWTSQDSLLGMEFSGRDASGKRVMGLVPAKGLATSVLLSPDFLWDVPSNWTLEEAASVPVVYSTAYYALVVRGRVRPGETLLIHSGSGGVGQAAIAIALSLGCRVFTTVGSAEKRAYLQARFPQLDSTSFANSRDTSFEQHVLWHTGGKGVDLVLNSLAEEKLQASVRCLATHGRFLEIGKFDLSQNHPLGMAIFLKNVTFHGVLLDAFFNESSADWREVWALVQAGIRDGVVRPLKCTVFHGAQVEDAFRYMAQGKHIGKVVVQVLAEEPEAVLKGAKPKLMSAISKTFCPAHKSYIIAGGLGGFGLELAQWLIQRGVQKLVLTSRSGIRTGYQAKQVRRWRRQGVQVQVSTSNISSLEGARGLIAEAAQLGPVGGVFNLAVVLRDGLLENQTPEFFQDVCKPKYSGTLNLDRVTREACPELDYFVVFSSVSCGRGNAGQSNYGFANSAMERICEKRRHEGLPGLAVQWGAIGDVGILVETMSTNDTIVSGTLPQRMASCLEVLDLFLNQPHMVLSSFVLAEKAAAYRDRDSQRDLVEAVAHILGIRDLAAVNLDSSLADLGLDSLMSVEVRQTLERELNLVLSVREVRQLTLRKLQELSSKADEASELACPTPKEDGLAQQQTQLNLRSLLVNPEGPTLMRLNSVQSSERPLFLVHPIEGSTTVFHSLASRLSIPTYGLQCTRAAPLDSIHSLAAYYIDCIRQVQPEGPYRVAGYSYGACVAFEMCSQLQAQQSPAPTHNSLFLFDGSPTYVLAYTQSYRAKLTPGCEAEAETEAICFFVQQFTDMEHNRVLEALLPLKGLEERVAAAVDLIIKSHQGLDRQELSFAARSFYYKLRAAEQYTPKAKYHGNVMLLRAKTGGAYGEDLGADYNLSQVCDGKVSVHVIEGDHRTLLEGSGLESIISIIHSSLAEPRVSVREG
Procedure: After 20 minutes incubation at room temperature the plate was measured again (T2).
The decrease in absorbance was calculated as (Absorbance before incubation T1)−(Absorbance following incubation T2).
A plot of Controlmin versus test compound concentration was fitted to a 4-parameter logistic curve using a non-linear least squares regression method.
For experiment [3], the target named is T1, hFASN enzyme (full length) (Homo sapiens, UniProt P49327).
T1 construct: 10 μL hFASN enzyme (full length, 300 ng, purified in house); made in house
T1 sequence (P49327 whole entry): as the sequence (P49327 whole entry, the tested form may be a part) above
Briefly: Fatty Acid Synthase (FASN) inhibition scintillation proximity assay. The conditions noted are these: for inhibition at 10 µM: read-out: Human FASN % inhibition @ 10 μM, 10 μM test compound; for IC50: read-out: Human FASN pIC50 (converted). The class given is biochemical. A digest of the protocol: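 Compounds at 0.01–30 μM were mixed with 300 ng purified full-length enzyme in 100 mM KH2PO4 pH 7.5, 1 mM DTT. Substrates ³H-acetyl-CoA and malonyl-CoA were then converted, and bead addition stopped the reaction. Signal was normalised to low and high plate controls and fitted by 4-parameter nonlinear regression.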

Experiment [4] has as its system A2780 ovarian cells. Briefly: A2780 ovarian cell proliferation assay in lipid reduced medium, without palmitate (MTT). The class given is cell-based. To be noted: Homo sapiens, A2780, 96 h; read-out: pIC50 A2780 Ovarian Cell, Without Palmitate (converted).

As for `Cn1ncc2ccc(-c3ccc(C4=NC5(CCCC5)C(=O)N4C[C@@H]4CCN(C(=O)C5CC5)C4)cc3)cc21` [compound 34, 3-{[(3R)-1-(Cyclopropylcarbonyl)pyrrolidin-3-yl]methyl}-2-[4-(1-methyl-1H-indazol-6-yl)phenyl]-1,3-diazaspiro[4.4]non-1-en-4-one], the IC50 is over 10000 nM with A2780 ovarian cells [1], 355 nM in experiment [2], 117 nM in experiment [3] and 776 nM with A2780 ovarian cells [4]. In experiment [3], the inhibition at 10 µM came to 102%.

Regarding `O=C(C1CC1)N1CC[C@@H](CN2C(=O)C3(CCCC3)N=C2c2ccc(-c3nc4ccccc4o3)cc2)C1` [compound 36, 2-[4-(1,3-Benzoxazol-2-yl)phenyl]-3-{[(3R)-1-(cyclopropylcarbonyl)pyrrolidin-3-yl]methyl}-1,3-diazaspiro[4.4]non-1-en-4-one], the IC50 in the experiment with A2780 ovarian cells [1] was over 10000 nM; in experiment [2], 1410 nM; in experiment [3], 550 nM; in the experiment with A2780 ovarian cells [4], 3470 nM. Also, the inhibition at 10 µM in experiment [3] came out at 96.2%.

Take `Cn1ncc2ccc(-c3ccc(C4=NC5(CC5)C(=O)N4CC4CN(C(=O)C5CC5)C4)cc3)cc21` [compound 38, 6-{[1-(Cyclopropylcarbonyl)azetidin-3-yl]methyl}-5-[4-(1-methyl-1H-indazol-6-yl)phenyl]-4,6-diazaspiro[2.4]hept-4-en-7-one]: the IC50 is over 10000 nM with A2780 ovarian cells [1], 646 nM in experiment [2], 269 nM in experiment [3] and 1200 nM in the experiment with A2780 ovarian cells [4]. The inhibition at 10 µM in experiment [3] came out at 94.9%.

On to `O=C(C1CC1)N1CC(CN2C(=O)C3(CC3)N=C2c2ccc(-c3ccc4[nH]ccc4c3)cc2)C1` [compound 40, 6-{[1-(Cyclopropylcarbonyl)azetidin-3-yl]methyl}-5-[4-(1H-indol-5-yl)phenyl]-4,6-diazaspiro[2.4]hept-4-en-7-one], for which the IC50 is over 10000 nM with A2780 ovarian cells [1], 42.7 nM in experiment [2], 18.6 nM in experiment [3] and 72.4 nM in the experiment with A2780 ovarian cells [4]. Moreover, in experiment [3], the inhibition at 10 µM amounted to 106%.

With `N#Cc1ccc(-c2ccc(C3=NC4(CC4)C(=O)N3CC3CN(C(=O)C4CC4)C3)cc2)cc1` [compound 41, 4′-(6-{[1-(Cyclopropylcarbonyl)azetidin-3-yl]methyl}-7-oxo-4,6-diazaspiro[2.4]hept-4-en-5-yl)biphenyl-4-carbonitrile], the IC50 in the experiment on A2780 ovarian cells [1] is over 10000 nM; in experiment [2] it was 851 nM; in experiment [3], 457 nM; with A2780 ovarian cells [4], 1200 nM. For the same compound, the inhibition at 10 µM in experiment [3] came out at 92.6%.

With `N#Cc1ccc(-c2ccc(C3=NC4(CC4)C(=O)N3C[C@@H]3CCN(C(=O)C4CC4)C3)cc2)cc1` [compound 48, 4′-(6-{[(3R)-1-(Cyclopropylcarbonyl)pyrrolidin-3-yl]methyl}-7-oxo-4,6-diazaspiro[2.4]hept-4-en-5-yl)biphenyl-4-carbonitrile], the IC50 in the experiment with A2780 ovarian cells [1] is over 10000 nM; in experiment [2], 282 nM; in experiment [3], 97.7 nM; with A2780 ovarian cells [4], 182 nM. Also, the inhibition at 10 µM in experiment [3] was 108%.

Turning to `O=C(C1CC1)N1CC(CN2C(=O)C3(CC3)N=C2c2ccc(-c3ccc4[nH]ncc4c3)cc2)C1` [compound 51, 6-{[1-(Cyclopropylcarbonyl)azetidin-3-yl]methyl}-5-[4-(1H-indazol-5-yl)phenyl]-4,6-diazaspiro[2.4]hept-4-en-7-one], the IC50 was over 10000 nM with A2780 ovarian cells [1], 162 nM in experiment [2], 79.4 nM in experiment [3] and 123 nM with A2780 ovarian cells [4]. For the same compound, in experiment [3], the inhibition at 10 µM is 102%.

In the case of `O=C(C1CC1)N1CC(CN2C(=O)C3(CC3)N=C2c2ccc(-c3ccc4ocnc4c3)cc2)C1` [compound 52, 5-[4-(1,3-Benzoxazol-5-yl)phenyl]-6-{[1-(cyclopropylcarbonyl)azetidin-3-yl]methyl}-4,6-diazaspiro[2.4]hept-4-en-7-one], the IC50 was over 10000 nM in the experiment on A2780 ovarian cells [1], 1780 nM in experiment [2], 759 nM in experiment [3] and 1860 nM with A2780 ovarian cells [4]. Besides, in experiment [3], the inhibition at 10 µM is 89.9%.

As to `Cn1cc(-c2ccc(-c3ccc(C4=NC5(CC5)C(=O)N4CC4CCN(C(=O)C5CC5)CC4)cc3)cc2)cn1` [compound 56, 6-{[1-(Cyclopropylcarbonyl)piperidin-4-yl]methyl}-5-[4′-(1-methyl-1H-p;yrazol-4-yl)biphenyl-4-yl]-4,6-diazaspiro[2.4]hept-4-en-7-one], the IC50 in the experiment with A2780 ovarian cells [1] was 6030 nM; in experiment [2], 1380 nM; in experiment [3], 407 nM; in the experiment on A2780 ovarian cells [4], 1580 nM. Moreover, the inhibition at 10 µM in experiment [3] worked out at 89.2%.

Turning to `O=C(C1CC1)N1CCC(CN2C(=O)C3(CC3)N=C2c2ccc(-c3ccc4scnc4c3)cc2)CC1` [compound 57, 5-[4-(1,3-Benzothiazol-5-yl)phenyl]-6-{[1-(cyclopropylcarbonyl)piperidin-4-yl]methyl}-4,6-diazaspiro[2.4]hept-4-en-7-one], the IC50 in the experiment on A2780 ovarian cells [1] is over 10000 nM; in experiment [2] it was 1700 nM; in experiment [3] it was 759 nM; in the experiment on A2780 ovarian cells [4] it was 2510 nM. In addition, the inhibition at 10 µM in experiment [3] was found to be 88.1%.

Turning to `O=C(C1CC1)N1CC(CN2C(=O)C3(CC3)N=C2c2ccc(-c3ccc(-c4cccnc4)cc3)cc2)C1` [compound 60, 6-{[1-(Cyclopropylcarbonyl)azetidin-3-yl]methyl}-5-(4′-pyridin-3-ylbiphenyl-4-yl)-4,6-diazaspiro[2.4]hept-4-en-7-one], the IC50 with A2780 ovarian cells [1] is over 10000 nM; in experiment [2], 288 nM; in experiment [3] it was 93.3 nM; in the experiment on A2780 ovarian cells [4] it was 263 nM. The inhibition at 10 µM in experiment [3] was found to be 99.4%.

With `O=C(C1CC1)N1CC[C@@H](CN2C(=O)C3(CCN(Cc4ccccc4)CC3)N=C2c2ccc(-c3ccc4[nH]ccc4c3)cc2)C1` [compound 63, (R)-2-(4-(1H-Indol-5-yl)phenyl)-8-benzyl-3-((1-(cyclopropanecarbonyl)pyrrolidin-3-yl)methyl)-1,3,8-triazaspiro[4.5]dec-1-en-4-one], the IC50 is over 10000 nM in the experiment on A2780 ovarian cells [1], 85.1 nM in experiment [2], 74.1 nM in experiment [3] and 75.9 nM in the experiment with A2780 ovarian cells [4]. Also, the inhibition at 10 µM in experiment [3] amounted to 115%.

On to `O=C(C1CC1)N1CC[C@@H](CN2C(=O)C3(CCCC3)N=C2c2ccc(-c3cccc4ncccc34)cc2)C1` [compound 66, 3-{[(3R)-1-(Cyclopropylcarbonyl)pyrrolidin-3-yl]methyl}-2-(4-quinolin-5-ylphenyl)-1,3-diazaspiro[4.4]non-1-en-4-one], for which the IC50 in the experiment on A2780 ovarian cells [1] is over 10000 nM; in experiment [2] it was 282 nM; in experiment [3], 74.1 nM; in the experiment on A2780 ovarian cells [4], 1100 nM. The inhibition at 10 µM in experiment [3] came out at 106%.

For the compound `O=C(C1CC1)N1CC[C@@H](CN2C(=O)C3(CCCC3)N=C2c2ccc(-c3cccc4cnccc34)cc2)C1` [compound 67, 3-{[(3R)-1-(Cyclopropylcarbonyl)pyrrolidin-3-yl]methyl}-2-(4-isoquinolin-5-ylphenyl)-1,3-diazaspiro[4.4]non-1-en-4-one], the IC50 is over 10000 nM in the experiment on A2780 ovarian cells [1], 1550 nM in experiment [2], 282 nM in experiment [3] and 1620 nM in the experiment on A2780 ovarian cells [4]. Further, the inhibition at 10 µM in experiment [3] amounted to 100%.

As for `O=C(C1CC1)N1CC[C@@H](CN2C(=O)C3(CCCC3)N=C2c2ccc(-c3cccc4[nH]ccc34)cc2)C1` [compound 68, 3-{[(3R)-1-(Cyclopropylcarbonyl)pyrrolidin-3-yl]methyl}-2-[4-(1H-indol-4-yl)phenyl]-1,3-diazaspiro[4.4]non-1-en-4-one], the IC50 was over 10000 nM in the experiment on A2780 ovarian cells [1], 162 nM in experiment [2], 63.1 nM in experiment [3] and 339 nM in the experiment with A2780 ovarian cells [4]. In addition, in experiment [3], the inhibition at 10 µM came to 107%.

For the compound `O=C(C1CC1)N1CC[C@@H](CN2C(=O)C3(CCCC3)N=C2c2ccc(-c3ccc4ccncc4c3)cc2)C1` [compound 69, 3-{[(3R)-1-(Cyclopropylcarbonyl)pyrrolidin-3-yl]methyl}-2-(4-isoquinolin-7-ylphenyl)-1,3-diazaspiro[4.4]non-1-en-4-one], the IC50 is over 10000 nM with A2780 ovarian cells [1], 851 nM in experiment [2], 224 nM in experiment [3] and 1150 nM with A2780 ovarian cells [4]. Moreover, in experiment [3], the inhibition at 10 µM is 100%.

As for `O=C(C1CC1)N1CC[C@@H](CN2C(=O)C3(CCCC3)N=C2c2ccc(-c3cccc(-c4cc[nH]n4)c3)cc2)C1` [compound 70, 3-{[(3R)-1-(Cyclopropylcarbonyl)pyrrrolidin-3-yl]methyl}-2-[3′-(1H-pyrazol-3-yl)biphenyl-4-yl]-1,3-diazaspiro[4.4]non-1-en-4-one], the IC50 in the experiment on A2780 ovarian cells [1] is over 10000 nM; in experiment [2] it was 1350 nM; in experiment [3] it was 537 nM; in the experiment on A2780 ovarian cells [4] it was about 2400 nM. For the same compound, the inhibition at 10 µM in experiment [3] amounted to 92.5%.

Consider `Cc1cc(-c2ccc3occc3c2)ccc1C1=NC2(CCCC2)C(=O)N1C[C@@H]1CCN(C(=O)C2CC2)C1` [compound 72, 2-[4-(1-Benzofuran-5-yl)-2-methylphenyl]-3-{[(3R)-1-(cyclopropylcarbonyl)pyrrolidin-3-yl]methyl}-1,3-diazaspiro[4.4]non-1-en-4-one], for which the IC50 in the experiment on A2780 ovarian cells [1] was over 10000 nM; in experiment [2], 174 nM; in experiment [3] it was 47.9 nM; in the experiment on A2780 ovarian cells [4], 1380 nM. Further, the inhibition at 10 µM in experiment [3] is 106%.
